Assay type in all cases: biochemical
For experiment [1], the system named is mtPTP. Kind of experiment: Ca2+ overload induced mitochondrial swelling in isolated mouse liver mitochondria. The conditions noted are these: for mtPTP inhibitory activity (in words): SAR discussion of Table 2. The procedure: We next sought to evaluate the effects of TR001-13 on mtPTP activity in vitro. This was performed on isolated mitochondria. In isolated mitochondria induction of mtPTP opening leads to mitochondrial swelling due to the oncotic pressure gradient created by matrix proteins >1.5 kDa that cannot diffuse through the open pore. In in vitro experiments, where isolated mitochondria are routinely suspended in sucrose-based isosmotic solutions, the change in mitochondrial size can be measured spectrometrically by detecting the decrease in light scattering at 540 nm.
(§1) Isolation of mitochondria. C57BL6/N mouse liver mitochondria were prepared from 2 to 6 month old male mice by standard differential centrifugation. Mice fed ad libitum were euthanized with CO2 followed cervical dislocation, their livers were existed and placed in a glass beaker containing ice-cold isolation buffer (IB: 0.25 m sucrose, 10 mm Tris-HCl, 0.1 mm EGTA-Tris, pH 7.4) supplemented with fatty acid free bovine serum albumin. Livers were then cut into small pieces with scissors, rinsed with ice-cold IB, and passed through a pre-chilled Potter homogenizer with Teflon pestle. The homogenate (˜30 mL per liver) was transferred to centrifuge tubes, and unbroken cells and nuclei were removed by centrifugation at 700 g for 10 min at 4° C. The supernatant containing mitochondria and other organelles was transferred to new tubes and centrifuged at 6000 g for 10 min at 4° C. The resulting supernatant was discarded and mitochondrial pellet was carefully suspended in ice-cold IB and spun at 9500 g for 5 min at 4° C. The pellet was suspended in IB to give a protein concentration of ˜60-80 mg/mL and stored on ice. Experiments were started immediately and completed within 5 h. Protein concentration was determined by the Biuret method.
Assessment of mitochondrial swelling. Changes in mitochondrial volume of isolated mouse liver mitochondria were followed in a 96-well clear assay plate at a final volume of 0.2 mL and 0.25 mg/mL mitochondrial protein. Absorbance was read for 30 min at 540 nm on a Tecan Infinite F200 plate reader. Activity of test compounds was addressed as follows: First, 0.1 mL of sucrose assay buffer (SAB: 0.250 m sucrose, 10 mm MOPS-Tris, 0.01 mm EGTA-Tris, 1.0 mm phosphoric acid-Tris, 10 mm glutamate and 5 mm malate, pH 7.4) supplemented with twice the CaCl2 concentration required to induce mitochondrial swelling (which was determined for each preparation of mitochondria, typically 50 μm) was dispensed to the assay plate. A set of wells also contained 2.0 mm EGTA (to prevent mitochondrial swelling). The test wells contained a range of concentrations (in 1:2 serial dilutions) of the compounds of interest or 2% DMSO. Experiments were started by the addition of 0.1 mL of mitochondrial suspension (0.5 mg/mL mitochondria in SAB without respiratory substrates) to the assay plates. EC50s±SE were determined with OriginPro software by applying Hill1 function fitting algorithm on average concentration response data of n=3-41 independent preparations.

For experiment [2], the system named is inner mitochondrial membrane potential. Briefly: Rhodamine 123 (Rh123) uptake, mitochondrial membrane potential of isolated mouse liver mitochondria. An excerpt:
We next evaluated the mitochondrial toxicity of the new triazole analogs by testing their ability to interfere with accumulation of the membrane-permeant cationic fluorescent dye rhodamine 123 (Rh123). The mitochondrial uptake of positively charged Rh123 is driven by the inside negative IMM potential, which is built by the respiratory chain or maintained by ATP hydrolysis if certain conditions are met. […] It should be noted, however, that toxicity for these compounds only occurs at ˜10-1000-fold higher concentrations compared to mtPTP inhibition, providing a good therapeutic window.
Assessment of mitochondrial membrane potential. Mitochondrial membrane potential—to evaluate toxicity—of isolated mouse liver mitochondria was assessed based on fluorescence quenching of the cationic fluorescent dye Rh123 upon its accumulation into mitochondrial matrix due to inside negative membrane potential. Compounds that interfere with the build-up or maintenance of IMM potential would shift Rh123 fluorescence to higher values compared to DMSO treated samples. Uncoupler FCCP was used to account for nonspecific fluorescence. First, 0.1 mL of SAB was dispensed to a 96-well black assay plate. A set of wells also contained 0.8 μm FCCP (to prevent Rh123 uptake). The test wells contained a range of concentrations (in 1:2 serial dilutions) of the compounds of interest or 2% DMSO. Then, 0.1 mL of 0.5 mg/mL mitochondria in SAB devoid of respiratory substrates but supplemented with 0.8 μm Rh123 were added to all wells of the assay plate. Fluorescence intensity (ex/em 485/535 nm) was read on a Tecan Infinite F200 plate reader for 7 min and value at 5 min was considered for analysis. EC50s±SE were determined with OriginPro software by applying Hill1 function fitting algorithm on average concentration response data of n=3 independent preparations.

Experiment [3] concerns mtPTP. Kind of experiment: Ca2+ retention capacity (CRC) of isolated mouse liver mitochondria. The method, then: CRC determines the Ca^2+ threshold required for mtPTP activation; inhibitors of mtPTP are expected to increase the Ca^2+ threshold required for mtPTP induction. Extramitochondrial Ca^2+ changes are detected using the membrane-impermeant Ca^2+ indicator, Calcium Green-5N.
as §1
Assessment of Ca^2+ retention capacity (CRC). CRC of isolated mouse liver mitochondria was assessed as follows: First, 0.1 mL of SAB were dispensed to a 96-well black assay plate in the presence of 2% DMSO (control wells) or varying concentrations of test compounds, in 1:2 serial dilutions. Then, 0.1 mL of 0.5 mg/mL mitochondria in SAB devoid of respiratory substrates, but supplemented with 1 μm Calcium Green-5N were added to all wells of the assay plate. A train of 10 μm CaCl2 pulses was added at 2 min intervals, and fluorescence intensity (ex/em 485/535 nm) was read on Tecan Infinite F200 plate reader.

Where [4] appears, read: Mouse Liver Mitochondria (MLM), comparative examples, read-out: Swelling EC50.
The mark [5] stands for this setting: Mouse Liver Mitochondria (MLM), comparative examples, read-out: Rh123 EC50.
Where [6] appears, read: Mouse Liver Mitochondria (MLM), comparative examples.
Where [7] appears, read: isolated mouse liver mitochondria, average ± SEM, n = 3-41, read-out: Mitochondrial Swelling EC50.
[8] abbreviates: interference with Rh123 uptake to mitochondria, average ± SEM, n = 3, read-out: Rh123 uptake EC50.
[9] abbreviates: compound treated CRC to DMSO treated CRC0 ratio, 1.25 μM, average ± SEM, n = 3-25.

Like-named read-outs stand apart in the source and are kept apart here.

Take `Cc1ccc(Cl)cc1NC(=O)c1cn(-c2cccc(O)c2C)nn1` [drawing 68]: the 50% effective concentration (EC50) in the experiment on mtPTP [1] (setting [4]) was 10.6 µM; in experiment [2] (setting [5]) it was above 40 µM. Also, the “CRC/CRC0 at 1.25 μM” value in the experiment on mtPTP [3] (setting [6]) was determined as 1.4.
For `C#Cc1ccc(Cl)cc1NC(=O)c1cn(-c2ccc(F)c(O)c2)nn1`, in that order: 0.513 µM, above 40 µM and 3.7.
Turning to `Cc1ccc(Cl)cc1NC(=O)c1cn(-c2cc(O)cc(C(F)(F)F)c2)nn1` [TR013, N-(5-chloro-2-methylphenyl)-1-(3-(trifluoromethyl)-5-hydroxyphenyl)-1H-1,2,3-triazole-4-carboxamide], the “mtPTP inhibitory activity (in words)” value in the experiment on mtPTP [1] is recorded as “significantly reduced activity”. For the same compound, the EC50 in the experiment on mtPTP [1] (setting [7]) came out at 0.534 ± 0.047 µM; in experiment [2] (setting [8]), 6.2 ± 1.2 µM. For the same compound, the “CRC/CRC0 at 1.25 μM” value in the experiment on mtPTP [3] (setting [9]) amounted to 2.9 ± 0.1.
For `Cc1ccc(-n2cc(C(=O)Nc3cc(Cl)ccc3C)nn2)cc1O` [TR011, N-(5-chloro-2-methylphenyl)-1-(3-hydroxy-4-methylphenyl)-1H-1,2,3-triazole-4-carboxamide], the “mtPTP inhibitory activity (in words)” value with mtPTP [1] was “inactive”. Besides, the half-maximal effective concentration (EC50) in the experiment on mtPTP [1] (setting [7]) is above 20 µM; in experiment [2] (setting [8]) it was above 40 µM. Besides, the “CRC/CRC0 at 1.25 μM” value in the experiment on mtPTP [3] (setting [9]) is recorded as 1.4 ± 0.1.
On to `Cc1ccc(Cl)cc1NC(=O)c1cn(-c2cc(O)cc(F)c2)nn1` [drawing 52], for which the EC50 in the experiment on mtPTP [1] (setting [4]) is 0.01 µM; in experiment [2] (setting [5]) it was 14 µM. In addition, the “CRC/CRC0 at 1.25 μM” value in the experiment with mtPTP [3] (setting [6]) is recorded as 13.09.
Turning to `Cc1ccc(Cl)cc1NC(=O)c1cn(-c2cccc(O)c2F)nn1` [drawing 51], the half-maximal effective concentration (EC50) was determined as 0.152 µM in the experiment with mtPTP [1] (setting [4]) and 29 µM in experiment [2] (setting [5]). For the same compound, in the experiment with mtPTP [3] (setting [6]), the “CRC/CRC0 at 1.25 μM” value amounted to 7.8.
In the case of `Cc1ccc(Cl)cc1NC(=O)c1cn(-c2cc(O)ccc2F)nn1` [TR004, N-(5-chloro-2-methylphenyl)-1-(2-fluoro-5-hydroxyphenyl)-1H-1,2,3-triazole-4-carboxamide], the “mtPTP inhibitory activity (in words)” value in the experiment on mtPTP [1] is “inactive”. Moreover, the half-maximal effective concentration (EC50) was above 20 µM in the experiment on mtPTP [1] (setting [7]) and above 40 µM in experiment [2] (setting [8]). For the same compound, the “CRC/CRC0 at 1.25 μM” value with mtPTP [3] (setting [9]) came to 1.3 ± 0.03.
In the case of `Cc1ccc(Cl)cc1NC(=O)c1cn(-c2ccc(Br)c(O)c2)nn1` [TR009, 1-(4-bromo-3-hydroxyphenyl)-N-(5-chloro-2-methylphenyl)-1H-1,2,3-triazole-4-carboxamide], the “mtPTP inhibitory activity (in words)” value in the experiment on mtPTP [1] is on record as “decreased activity”. Also, the concentration for a half-maximal effect (EC50) with mtPTP [1] (setting [7]) is 0.475 ± 0.057 µM; in experiment [2] (setting [8]), above 40 µM. Besides, the “CRC/CRC0 at 1.25 μM” value with mtPTP [3] (setting [9]) is given as 2.4 ± 0.2.
As to `Cc1ccc(Cl)cc1NC(=O)c1cn(-c2cccc(O)c2Cl)nn1` [drawing 70], the EC50 with mtPTP [1] (setting [4]) is above 20 µM; in experiment [2] (setting [5]) it was above 40 µM. The “CRC/CRC0 at 1.25 μM” value in the experiment on mtPTP [3] (setting [6]) was determined as 1.2.
On to `C#Cc1ccc(C)c(NC(=O)c2cn(-c3ccc(F)c(O)c3)nn2)c1`, for which the concentration giving a half-maximal response (EC50) with mtPTP [1] (setting [4]) is 7 µM; in experiment [2] (setting [5]), above 40 µM. In the experiment on mtPTP [3] (setting [6]), the “CRC/CRC0 at 1.25 μM” value came out at 1.3.
Turning to `Cc1ccc(Cl)cc1NC(=O)c1cn(-c2cc(O)cc(C(F)(F)F)c2)nn1` [drawing 71], the 50% effective concentration (EC50) with mtPTP [1] (setting [4]) came out at 0.534 µM; in experiment [2] (setting [5]) it was 6 µM. Also, in the experiment on mtPTP [3] (setting [6]), the “CRC/CRC0 at 1.25 μM” value was found to be 3.
Regarding `Cc1ccc(Cl)cc1NC(=O)c1cn(-c2cc(O)cc(F)c2)nn1` [TR002, N-(5-chloro-2-methylphenyl)-1-(3-fluoro-5-hydroxyphenyl)-1H-1,2,3-triazole-4-carboxamide], the “mtPTP inhibitory activity (in words)” value in the experiment on mtPTP [1] is recorded as “most potent analog”. In addition, the values for the half-maximal effective concentration (EC50) (with mtPTP [1] (setting [7]); in experiment [2] (setting [8])) were 0.01 ± 0.002 µM and 14.1 ± 1.2 µM, respectively. In addition, the “CRC/CRC0 at 1.25 μM” value in the experiment with mtPTP [3] (setting [9]) came to 12.6 ± 0.6.
Regarding `CC(=O)c1ccc(C)c(NC(=O)c2cn(-c3ccc(F)c(O)c3)nn2)c1`, the values for the EC50 (in the experiment with mtPTP [1] (setting [4]); in experiment [2] (setting [5])) were 5.2 µM and above 40 µM, respectively. In addition, the “CRC/CRC0 at 1.25 μM” value in the experiment with mtPTP [3] (setting [6]) was determined as 1.4.
For `CCCOc1ccc(Cl)cc1NC(=O)c1cn(-c2ccc(F)c(O)c2)nn1`, the EC50 in the experiment on mtPTP [1] (setting [4]) is 8.7 µM; in experiment [2] (setting [5]), above 40 µM. The “CRC/CRC0 at 1.25 μM” value in the experiment on mtPTP [3] (setting [6]) stood at 1.8.
Regarding `Cc1ccc(N=[N+]=[N-])cc1NC(=O)c1cn(-c2ccc(F)c(O)c2)nn1`, the half-maximal effective concentration (EC50) in the experiment on mtPTP [1] (setting [4]) is 0.578 µM; in experiment [2] (setting [5]), above 40 µM. Moreover, the “CRC/CRC0 at 1.25 μM” value with mtPTP [3] (setting [6]) came out at 2.4.
Take `Cc1ccc(I)cc1NC(=O)c1cn(-c2ccc(F)c(O)c2)nn1`: the EC50 in the experiment on mtPTP [1] (setting [4]) was 0.028 µM; in experiment [2] (setting [5]), 14.7 µM. Besides, in the experiment with mtPTP [3] (setting [6]), the “CRC/CRC0 at 1.25 μM” value is listed as 8.3.
With `Cc1ccc(Cl)cc1NC(=O)c1cn(-c2cccc(O)c2Cl)nn1` [TR007, N-(5-chloro-2-methylphenyl)-1-(2-chloro-3-hydroxyphenyl)-1H-1,2,3-triazole-4-carboxamide], the EC50 in the experiment on mtPTP [1] (setting [7]) is above 20 µM; in experiment [2] (setting [8]) it was above 40 µM. For the same compound, the “CRC/CRC0 at 1.25 μM” value in the experiment on mtPTP [3] (setting [9]) turned out to be 1.2 ± 0.1.
For the compound `Cc1ccc(Cl)cc1NC(=O)c1cn(-c2ccc(C)c(O)c2Cl)nn1` [TR010, N-(5-chloro-2-methylphenyl)-1-(2-chloro-3-hydroxy-4-methylphenyl)-1H-1,2,3-triazole-4-carboxamide], the EC50 was above 20 µM in the experiment with mtPTP [1] (setting [7]) and above 40 µM in experiment [2] (setting [8]). Also, in the experiment with mtPTP [3] (setting [9]), the “CRC/CRC0 at 1.25 μM” value is recorded as 1.1 ± 0.1.

For the origin of these results see US12398110B2, “Second generation inhibitors of mitochondrial permeability transition pore with improved plasma stability” (Oregon Health & Science University, priority 2019, dated 2025).
